IC50 data for 52 compounds are collected here from ChEMBL document CHEMBL1857833, “Screening and optimization of specific chemical series against human African Trypanosomiasis (HAT)”.

Data set [1] relates to Trypanosoma brucei. The data set can be described thus: DNDI: Inhibition of Human African Trypanosomiasis, SBRI 427, in vitro. The data set is classed as functional, organism-based. As to conditions: Trypanosoma brucei, SBRI 427; read-out: IC50.
The nature of data set [2]: DNDI: Cytotoxicity against L929 mouse fibroblasts, 72 hour. The data set is classed as toxicity, cell-based. As to conditions: mouse, L929 mouse fibroblasts.

SMILES strings stand for the structures. In brackets after ≈: the same amount, converted by molar mass. A value given as a limit tells only on which side of the number the result lay.

What is called IC50 is the point on the concentration scale where inhibition reaches its midpoint. On to `N#Cc1nc(-c2ccccc2)oc1N`, for which, in data set [1], the IC50 was over 5 mg/L. This compound also had an IC50 at 72 h in data set [2] of over 10 mg/L.
For `Cc1ccc(CNC(c2nc(Cc3ccccc3)c(N3CCOCC3)o2)C2CC2)cc1` (centres undefined), in that order: over 5 mg/L and over 10 mg/L.
For `CCCCc1ccc(-c2nc(Nc3ccccn3)co2)cc1`, in that order: over 5 mg/L and over 10 mg/L.
The like results for `COc1ccccc1CNC(c1ccccc1)c1nc(-c2ccccc2)c(N2CCOCC2)o1` (centres undefined) were, in that order, over 5 mg/L and over 10 mg/L.
For the compound `COc1cccc(C(NCc2ccc(C)cc2)c2nc(Cc3ccccc3)c(N3CCOCC3)o2)c1` (centres undefined), the IC50 in data set [1] was over 5 mg/L. The compound further showed an IC50 at 72 h in data set [2] of over 10 mg/L.
As to `c1ccc(-c2nc(C(NCCCn3ccnc3)C3CC3)oc2N2CCOCC2)cc1` (centres undefined), in data set [1], the half-inhibitory concentration (IC50) was over 5 mg/L. This compound also had an IC50 at 72 h in data set [2] of over 10 mg/L.
Consider `CCCCc1ccc(-c2nc(CN3CCN(c4ccccc4)CC3)co2)cc1`, for which the concentration for half-maximal inhibition (IC50) in data set [1] was over 5 mg/L. In addition, the IC50 at 72 h in data set [2] was over 10 mg/L.
The like results for `c1ccc(Cc2nc(C(NCc3ccco3)C3CC3)oc2N2CCOCC2)cc1` (centres undefined) were, in that order, over 5 mg/L and over 10 mg/L.
For `O=C(NCC1C(O)=C(C(=O)c2ccccc2)C(=O)N1C(=O)OCc1ccccc1)OCc1ccccc1` (centres undefined), in that order: over 5 mg/L and 9.13 mg/L (≈ 18.2 µM).
The like results for `Cc1ccc(CNC(c2nc(Cc3ccccc3)c(N3CCOCC3)o2)c2ccccc2C)cc1` (centres undefined) were, in that order, over 5 mg/L and over 10 mg/L.
As to `CCCCCC(C)NCc1coc(-c2cc(Cl)ccc2O)n1` (centres undefined), in data set [1], the IC50 is 2.46 mg/L (≈ 7.62 µM). Also, 2.33 mg/L (≈ 7.22 µM) corresponded to half-maximal inhibition in data set [2] (IC50 at 72 h).
The like results for `CCOCCCNC(c1nc(C(C)C)c(N2CCOCC2)o1)C1CC1` (centres undefined) were, in that order, over 5 mg/L and over 10 mg/L.
For `Cc1ccc(CNC(CC(C)C)c2nc(-c3ccccc3)c(N3CCOCC3)o2)cc1` (centres undefined), in that order: 4.22 mg/L (≈ 10.1 µM) and over 10 mg/L.
In the case of `Cc1ccc(CNC(c2nc(-c3ccccc3)c(N3CCOCC3)o2)C2CC2)cc1` (centres undefined), the IC50 in data set [1] was over 5 mg/L. In addition, the IC50 at 72 h in data set [2] was over 10 mg/L.
For `COc1ccc(CNC(CC(C)C)c2nc(C(C)C)c(N3CCOCC3)o2)cc1` (centres undefined), in that order: over 5 mg/L and over 10 mg/L.
For `c1ccc(-c2nc(C(NCc3ccco3)C3CC3)oc2N2CCOCC2)cc1` (centres undefined), in that order: over 5 mg/L and over 10 mg/L.
For `c1ccc(Cc2nc(C(NCc3ccc4c(c3)OCO4)C3CC3)oc2N2CCOCC2)cc1` (centres undefined), in data set [1], the IC50 was over 5 mg/L. In data set [2], the IC50 at 72 h was over 10 mg/L.
For `CCCCCC(C)NCc1coc(-c2cc(C(C)=O)ccc2O)n1` (centres undefined), in that order: 2.32 mg/L (≈ 7.02 µM) and 3.47 mg/L (≈ 10.5 µM).
The like results for `CCCCCC(C)NCc1coc(-c2ccc(OC(F)F)cc2)n1` (centres undefined) were, in that order, 2.15 mg/L (≈ 6.35 µM) and 3.82 mg/L (≈ 11.3 µM).
For `CCCCCC(C)NCc1coc(-c2ccc(OC(F)(F)C(F)F)cc2)n1` (centres undefined), in that order: 1.42 mg/L (≈ 3.66 µM) and 4.3 mg/L (≈ 11.1 µM).
Take `COc1cccc(OC)c1CNCc1coc(-c2ccc(OC(C)C)cc2)n1`: the IC50 in data set [1] was 2.88 mg/L (≈ 7.53 µM). For the same compound, in data set [2], the IC50 at 72 h turned out to be 4.15 mg/L (≈ 10.9 µM).
For `CCCCc1ccc(-c2nc(CN3CCN(C(=O)OC(C)(C)C)CC3)co2)cc1`, in that order: over 5 mg/L and over 10 mg/L.
The like results for `CCCCCC(C)NCc1coc(-c2cc(C(F)(F)F)cc(C(F)(F)F)c2)n1` (centres undefined) were, in that order, 2.06 mg/L (≈ 5.04 µM) and over 10 mg/L.
For `CCCCc1ccc(-c2nc3ncccc3o2)cc1`, in that order: over 5 mg/L and over 10 mg/L.
As for `O=C1CC(=O)N(C(=O)OCc2ccccc2)C1COCc1ccccc1` (centres undefined), in data set [1], the IC50 is over 5 mg/L. In addition, the IC50 at 72 h in data set [2] was over 10 mg/L.
The like results for `CCCCCC(C)NCc1coc(-c2ccccc2C#N)n1` (centres undefined) were, in that order, 3.76 mg/L (≈ 12.6 µM) and over 10 mg/L.
For `CCCCCC(C)NCc1coc(-c2ccc(C)c(C)c2)n1` (centres undefined), in that order: 0.74 mg/L (≈ 2.46 µM) and 1.86 mg/L (≈ 6.19 µM).
For `Cc1ccc(CNC(c2nc(Cc3ccccc3)c(N3CCOCC3)o2)c2ccccc2F)cc1` (centres undefined), in that order: over 5 mg/L and over 10 mg/L.
For `CCCCc1ccc(-c2nc(Nc3cccnc3)co2)cc1`, the IC50 in data set [1] was over 5 mg/L. The same compound displayed an IC50 at 72 h in data set [2] of 6.24 mg/L (≈ 21.3 µM).
For `CCCCc1ccc(-c2nc(CN3C(=O)c4ccccc4C3=O)co2)cc1`, in that order: over 5 mg/L and over 10 mg/L.
For `CC(C)CC(NCc1ccc(Cl)c(Cl)c1)c1nc(-c2ccccc2)c(N2CCOCC2)o1` (centres undefined), the IC50 in data set [1] amounted to 4.46 mg/L (≈ 9.4 µM). Further, the IC50 at 72 h in data set [2] is over 10 mg/L.
For `CCCCc1ccc(-c2nc(CNCc3ccncc3)co2)cc1`, in that order: over 5 mg/L and over 10 mg/L.
For `Cc1ccc(CNC(c2cccc(Cl)c2)c2nc(Cc3ccccc3)c(N3CCOCC3)o2)cc1` (centres undefined), in that order: over 5 mg/L and over 10 mg/L.
Regarding `CCCCc1ccc(-c2nc(CNCc3ccccn3)co2)cc1`, in data set [1], the IC50 was over 5 mg/L. Besides, the IC50 at 72 h in data set [2] was 9.31 mg/L (≈ 29 µM).
The like results for `CCOCCCNC(CC(C)C)c1nc(-c2ccccc2)c(N2CCOCC2)o1` (centres undefined) were, in that order, over 5 mg/L and over 10 mg/L.
For `Nc1oc(-c2ccccc2)nc1C(=O)c1ccc(-c2ccccc2)cc1`, in that order: over 5 mg/L and 5.23 mg/L (≈ 15.4 µM).
The like results for `CCCCCC(C)NCc1coc(-c2ccc(Cl)cc2Cl)n1` (centres undefined) were, in that order, 0.9 mg/L (≈ 2.64 µM) and 3.47 mg/L (≈ 10.2 µM).
With `CC(C)CC(NCc1ccc(C(F)(F)F)cc1)c1nc(-c2ccccc2)c(N2CCOCC2)o1` (centres undefined), the IC50 in data set [1] worked out at 2.58 mg/L (≈ 5.45 µM). The same compound had an IC50 at 72 h in data set [2] of over 10 mg/L.
`CC(C)CC(NCCc1ccc(S(N)(=O)=O)cc1)c1nc(C(C)C)c(N2CCOCC2)o1` (centres undefined): the IC50 in data set [1] is over 5 mg/L. Besides, the IC50 at 72 h in data set [2] is over 10 mg/L.
The like results for `COc1ccccc1C(=O)c1nc(-c2ccccc2)oc1N` were, in that order, over 5 mg/L and over 10 mg/L.
The like results for `Cc1ccc(CNC(CC(C)C)c2nc(C(C)C)c(N3CCOCC3)o2)cc1` (centres undefined) were, in that order, over 5 mg/L and over 10 mg/L.
The like results for `CCCCOc1ccc(-c2nc(CNCC(C)(C)C)co2)cc1` were, in that order, 0.9 mg/L (≈ 2.84 µM) and 1.8 mg/L (≈ 5.69 µM).
Take `CCCCc1ccc(-c2nc(CN)co2)cc1`: the IC50 in data set [1] was over 5 mg/L. The half-maximal inhibitory concentration (IC50) at 72 h in data set [2] is over 10 mg/L.
Regarding `Cc1ccc(CNC(c2cccc(C#N)c2)c2nc(Cc3ccccc3)c(N3CCOCC3)o2)cc1` (centres undefined), in data set [1], the IC50 was over 5 mg/L. For the same compound, the IC50 at 72 h in data set [2] is over 10 mg/L.
With `CCCCCc1ccc(-c2nc(CNC(C)CCCCC)co2)cc1` (centres undefined), the IC50 in data set [1] came out at 1.09 mg/L (≈ 3.18 µM). This compound also registered an IC50 at 72 h in data set [2] of 1.01 mg/L (≈ 2.95 µM).
The like results for `CCCCCC(C)NCc1coc(-c2ccc([N+](=O)[O-])cc2)n1` (centres undefined) were, in that order, 4.99 mg/L (≈ 15.7 µM) and 7.08 mg/L (≈ 22.3 µM).
For `CCCCCC(C)NCc1coc(C2CCCCC2)n1` (centres undefined), in that order: 2.54 mg/L (≈ 9.12 µM) and 10 mg/L (≈ 35.9 µM).
For `CCCCCC(C)NCc1coc(-c2c(Cl)cccc2Cl)n1` (centres undefined), in that order: 2.04 mg/L (≈ 5.98 µM) and 5.76 mg/L (≈ 16.9 µM).
Consider `CCOCCCNC(c1nc(Cc2ccccc2)c(N2CCOCC2)o1)C1CC1` (centres undefined), for which the IC50 in data set [1] was over 5 mg/L. The compound further had a half-maximal inhibitory concentration (IC50) at 72 h in data set [2] of over 10 mg/L.
The like results for `CCCCc1ccc(-c2nc(COCC)co2)cc1` were, in that order, over 5 mg/L and over 10 mg/L.
The like results for `C#[N+]C(C(=O)N1CCOCC1)c1ccccc1` (centres undefined) were, in that order, over 5 mg/L and over 10 mg/L.
For the compound `C#[N+]C(C(=O)N1CCOCC1)C(C)C` (centres undefined), the IC50 in data set [1] is over 5 mg/L. The compound further gave an IC50 at 72 h in data set [2] of over 10 mg/L.
